This note sets out measurements from ChEMBL document CHEMBL4325876, “Novel 3-(2,6,9-trisubstituted-9H-purine)-8-chalcone derivatives as potent anti-gastric cancer agents: Design, synthesis and structural optimization” (Eur J Med Chem, 2019).

As usually defined, the IC50 is the concentration that gives 50% inhibition.

Structures are written as SMILES. Calls of active or inactive are those of the source. The calls are words filed in the database; no cut-off is given here.

In data set [1] the test system is MGC-803. The data set can be described thus: Cytotoxicity against human MGC803 cells assessed as inhibition of cell proliferation after 72 hrs by MTT assay. Format: functional, cell-based. To be noted: MGC-803, 72 h. (In general: Tetrazolium dyes change colour on reduction, which living cells bring about.)
Data set [2] relates to A549. Kind of data set: Cytotoxicity against human A549 cells assessed as inhibition of cell proliferation after 72 hrs by MTT assay. Format: functional, cell-based. To be noted: A549, 72 h.
The subject of data set [3] is TE-1. Kind of data set: Cytotoxicity against human TE1 cells assessed as inhibition of cell proliferation after 72 hrs by MTT assay. Format: functional, cell-based. The conditions noted are these: TE-1, 72 h.
In data set [4] the test system is THP-1. The data set can be described thus: Cytotoxicity against human THP1 cells assessed as inhibition of cell proliferation after 72 hrs by MTT assay. Format: functional, cell-based. To be noted: THP-1, 72 h.
The subject of data set [5] is GES1. The data set can be described thus: Cytotoxicity against human GES-1 cells assessed as inhibition of cell proliferation after 72 hrs by MTT assay. Format: cell-based. The conditions noted are these: GES1, 72 h.
A short description of data set [6]: Selectivity index, ratio of IC50 for human GES-1 cells to IC50 for human MGC803 cells. It is filed as toxicity. To be noted: GES-1 cells versus MGC803 cells, read-out: Ratio IC50.
Data set [7] relates to MGC-803. The data set can be described thus: Inhibition of colony formation in human MGC803 cells after 7 days by crystal violet staining based assay. Format: functional, cell-based.
For data set [8], the system named is MGC-803. The data set can be described thus: Induction of apoptosis in human MGC803 cells assessed as cell rounding at 0.25 to 1 uM after 72 hrs by Hoechst 33258 staining based fluorescence microscopic method. Format: functional.
In data set [9] the test system is MGC-803. Kind of data set: Induction of apoptosis in human MGC803 cells assessed as chromatin shrinkage at 0.25 to 1 uM after 72 hrs by Hoechst 33258 staining based fluorescence microscopic method. It is filed as functional, cell-based.
Data set [10] has as its system MGC-803. The data set can be described thus: Induction of apoptosis in human MGC803 cells assessed as formation of apoptotic bodies at 0.25 to 1 uM after 72 hrs by Hoechst 33258 staining based fluorescence microscopic method. Format: functional, cell-based.
For data set [11], the system named is MGC-803. The data set can be described thus: Induction of apoptosis in human MGC803 cells assessed as apoptotic cells at 1 uM after 72 hrs by Annexin V-FITC/propidium iodide staining based flow cytometry (reference value: 0.6%). It is filed as functional. A general note: A flow cytometer gives signals particle by particle.
Data set [12] has as its system MGC-803. The data set can be described thus: Induction of apoptosis in human MGC803 cells after 72 hrs by Annexin V-FITC/propidium iodide staining based flow cytometry. It is filed as functional, cell-based.
Data set [13] relates to MGC-803. The data set can be described thus: Induction of apoptosis in human MGC803 cells assessed as increase in Bax expression at 0.25 to 1 uM after 72 hrs by Western blot analysis. It is filed as functional, cell-based. (Immunoblotting shows a protein as a band on a membrane.)
The subject of data set [14] is MGC-803. Kind of data set: Induction of apoptosis in human MGC803 cells assessed as decrease in Bcl2 expression at 0.25 to 1 uM after 72 hrs by Western blot analysis. Format: functional, cell-based.
For data set [15], the system named is MGC-803. Kind of data set: Induction of apoptosis in human MGC803 cells assessed as increase in cleaved caspase-9 level after 72 hrs by Western blot analysis. Format: functional, cell-based.
The subject of data set [16] is MGC-803. Kind of data set: Induction of apoptosis in human MGC803 cells assessed as increase in cleaved caspase-3 level after 72 hrs by Western blot analysis. Format: functional, cell-based.
The subject of data set [17] is MGC-803. Kind of data set: Induction of apoptosis in human MGC803 cells assessed as increase in cleaved caspase-8 level after 72 hrs by Western blot analysis. Format: functional, cell-based.
In data set [18] the test system is MGC-803. Kind of data set: Induction of apoptosis in human MGC803 cells assessed as increase in cleaved PARP level after 72 hrs by Western blot analysis. It is filed as functional, cell-based.
In data set [19] the test system is MGC-803. The data set can be described thus: Antimigratory activity in human MGC803 cells at 0.25 to 1 uM after 72 hrs by wound healing assay. It is filed as functional, cell-based.
The subject of data set [20] is MGC-803. Kind of data set: Antimigratory activity in human MGC803 cells at 0.25 to 1 uM after 72 hrs by Hoechst 33258 staining based transwell assay. It is filed as functional, cell-based.
The test system of data set [21] is MGC-803. The data set can be described thus: Antiinvasive activity in human MGC803 cells after 72 hrs by Hoechst 33258 staining based matrigel coated transwell assay. It is filed as functional, cell-based.

Take `CCCSc1nc(NCc2ccccc2)c2nc(/C=C/C(=O)c3ccc(C)cc3)n(Cc3ccccc3)c2n1`: the half-inhibitory concentration (IC50) was 12.4 µM in data set [1], 30.1 µM in data set [2], > 32 µM in data set [3] and > 32 µM in data set [4].

As for `CCCSc1nc(N2CCOCC2)c2nc(/C=C/C(=O)c3ccc4ccccc4c3)n(Cc3ccccc3)c2n1`, the half-inhibitory concentration (IC50) in data set [1] is 7.75 µM; in [2] it was 28.1 µM; in data set [3] it was 23.8 µM; in data set [4], > 32 µM.

`CCCSc1nc(N2CCOCC2)c2nc(/C=C/C(=O)c3ccc(OC)c(OC)c3)n(Cc3ccccc3)c2n1`: the concentration for half-maximal inhibition (IC50) in [1] is 4.91 µM; in data set [2], 9.74 µM; in [3], 8.56 µM; in [4], > 32 µM.

Turning to `CCCSc1nc(N2CCOCC2)c2nc(/C=C/C(=O)c3cccc(OC)n3)n(Cc3ccccc3)c2n1`, the IC50 in data set [1] was 8.62 µM; in data set [2] it was > 32 µM; in data set [3] it was 10.7 µM; in data set [4], 9.73 µM.

With `CCCSc1nc(N2CCOCC2)c2nc(/C=C/C(=O)c3ccc(C)cc3)n(CC3CCCCC3)c2n1`, the IC50 turned out to be 4.02 µM in [1], 10.5 µM in data set [2], 8.43 µM in [3] and 3.83 µM in [4].

Consider `CCCSc1nc(N2CCCCC2)c2nc(/C=C/C(=O)c3ccc(C)cc3)n(Cc3ccccc3)c2n1`, for which the half-inhibitory concentration (IC50) in [1] was 15.7 µM; in [2] it was > 32 µM; in data set [3], > 32 µM; in data set [4], > 32 µM.

On to `CCCSc1nc(N2CCOCC2)c2nc(/C=C/C(=O)c3ccc(C)cc3)n(CCCc3ccccc3)c2n1`, for which the half-maximal inhibitory concentration (IC50) in data set [1] amounted to 0.84 µM; in data set [2], 2.11 µM; in data set [3], 8.52 µM; in [4], 26.2 µM; in [5], 23.4 µM. In addition, the selectivity ratio in data set [6] came to 27.8. Also, the inhibition entry in [7] was “Dose-dependent effect”. Moreover, the outcome in [8], in data set [9], in data set [10], in data set [13], in data set [14] and in data set [19] was Active. In addition, the result in data set [20] was Active. Moreover, the Activity in data set [11] is 86.3%; in data set [12], “Dose-dependent effect”; in data set [15], “Dose-dependent effect”; in data set [16] it was “Dose-dependent effect”; in data set [17] it was “Dose-dependent effect”; in [18], “Dose-dependent effect”. The Activity result in [21] is “Dose-dependent effect”.

With `CCCSc1nc(N2CCOCC2)c2nc(/C=C/C(=O)c3ccc(C)cc3)n(Cc3ccccc3)c2n1`, the IC50 in [1] amounted to 1.55 µM; in data set [2] it was 4.9 µM; in [3], 3.63 µM; in data set [4] it was 2.76 µM.

As for `CCCSc1nc(N2CCOCC2)c2nc(/C=C/C(=O)c3ccc(OC)cc3)n(Cc3ccccc3)c2n1`, the 50% inhibitory concentration (IC50) in [1] worked out at 3.1 µM; in data set [2], 7.63 µM; in [3], 5.87 µM; in data set [4], 2.52 µM.

In the case of `CCCSc1nc(N2CCOCC2)c2nc(/C=C/c3ccccc3)n(Cc3ccccc3)c2n1`, the IC50 in [1] is 30.5 µM; in data set [2], > 32 µM.

On to `CCCSc1nc(N2CCOCC2)c2nc(/C=C/C(=O)c3ccccc3)n(Cc3ccccc3)c2n1`, for which the IC50 was 4.74 µM in data set [1]; 14.9 µM in data set [2]; 7.38 µM in data set [3]; 1.41 µM in data set [4]; 35.6 µM in data set [5]. Moreover, the selectivity ratio in data set [6] stood at 7.5.

`CCCSc1nc(Cl)c2c(n1)N(Cc1ccccc1)C(C(=O)NCCCc1ccccc1)N2` (stereo not drawn): the half-inhibitory concentration (IC50) in data set [5] was 24.9 µM. In data set [6], the selectivity ratio was found to be 1.5. Further, in data set [7], the inhibition entry was “Active”.

For the compound `CCCSc1nc(N2CCOCC2)c2nc(-c3ccccc3)n(Cc3ccccc3)c2n1`, the IC50 in [1] and in [2] was > 32 µM throughout.

With `CCCSc1nc(N2CCOCC2)c2nc(/C=C/C(=O)c3ccc(-c4ccccc4)cc3)n(Cc3ccccc3)c2n1`, the half-inhibitory concentration (IC50) in data set [1], in [2], in data set [3] and in [4] was > 32 µM throughout.

As for `CCCSc1nc(N2CCOCC2)c2nc(/C=C/C(=O)c3ccc(Br)cc3)n(Cc3ccccc3)c2n1`, the IC50 in [1] turned out to be 3.41 µM; in [2], 10.7 µM; in [3], 13.3 µM; in data set [4], 11.4 µM.

For `CCCSc1nc(N2CCOCC2)c2nc(/C=C/C(=O)c3ccc(Cl)cc3)n(Cc3ccccc3)c2n1`, the IC50 in data set [1] is 8.32 µM; in data set [2] it was 17.1 µM; in [3], 19.1 µM; in data set [4], 3.71 µM.

Regarding `CCCSc1nc(N2CCOCC2)c2nc(/C=C/C(=O)c3cc(OC)c(OC)c(OC)c3)n(Cc3ccccc3)c2n1`, the concentration for half-maximal inhibition (IC50) in [1] is 6.52 µM; in data set [2], > 32 µM; in data set [3] it was 9.93 µM; in [4], > 32 µM.

For the compound `CCCSc1nc(N2CCOCC2)c2nc(/C=C/C(=O)c3ccccc3Cl)n(Cc3ccccc3)c2n1`, the half-maximal inhibitory concentration (IC50) in [1] is 2.41 µM; in [2], 9.19 µM; in data set [3] it was 4.87 µM; in [4], 9.73 µM.

Consider `CCCSc1nc(N2CCOCC2)c2nc(CCc3ccccc3)n(Cc3ccccc3)c2n1`, for which the IC50 in data set [1] and in data set [2] was > 32 µM in each case.
